From US20110059226A1, “METHOD FOR LOADING A MOLECULE INTO A POROUS SUBSTRATE” (priority 2009, published 2011)

Tests used:
Type in all cases: physicochemical
[1] = Solubility limit of Ibuprofen in CO2 (I) and CO2 (I) with 5 mol % cosolvent, by visual inspection; conditions: room temperature, 55±2 bar, 9 hours
Method: The solubility of Ibuprofen in CO2 (I) and CO2 (I) with 5 mol % of cosolvent was determined by visual inspection of sample mixtures of the solvent(s) and Ibuprofen at room temperature and 55±2 bar, and the solubility limit was considered to be reached when particles of Ibuprofen were visible.

[2] = Loading of Ibuprofen into mesoporous silica (MCM-41) from liquid carbon dioxide, adsorbed amount measured by TGA; conditions: for Maximum loaded amount of Ibuprofen in mesoporous silica: pure CO2 (I), 20° C., 55±2 bar
Text: The mesoporous particles were placed in a bag (fabric of polypropene, PP 3333, permeability 105 DIN, Derma AB, Sweden), which was permeable for the solvent and dissolved Ibuprofen molecules but kept the mesoporous particles in one place in the reactor (see below). The amount of mesoporous particles was 0.1 g in all experiments, while the amount of Ibuprofen was varied for different loading experiments. The particles in the bag and Ibuprofen crystals (thoroughly ground in a mortar before use) were placed in a glass beaker (400 ml), which was placed in an in-house built stainless steel reactor (1.7 L) with two sapphire glass windows. The reactor was first pressurized with carbon dioxide and thereafter 200 ml CO2 (I) or CO2 (I)+5 mol-% cosolvent was introduced into the glass beaker at 20° C. and 55±2 bar. […] After the loading period (15 minutes to 18 hours), the reactor was depressurized and the bag containing the mesoporous particles with Ibuprofen was retrieved. The samples were characterized with TGA using a TGA 7 instrument (Perkin Elmer Inc., USA). The temperature program used consisted of an initial part with a heating rate of 20° C./min from 20° C. to 95° C., followed by an isothermal pause for 60 minutes at 95° C., and finally heating from 95° C. up to 800° C. at a heating rate of 2° C./min. All TGA measurements were performed under 20 ml/min flow of N2 gas. […] The loading time and concentration of Ibuprofen in the CO2 (I) was varied in the experiments and each experiment is represented by one point in the graph in FIG. 1.

[3] = Release of Ibuprofen from mesoporous silica into water; conditions: within one minute of the mesoporous silica being added to water
Text: Fifty percent of the Ibuprofen is released into water within one minute of the mesoporous silica being added to water. This is desirable as a quicker release for an analgesic drug will result in faster relief for the individual taking the analgesic drug.

CC(C)Cc1ccc(C(C)C(=O)O)cc1 (stereo not shown) [Ibuprofen]
Solubility limit ([1]; Solvent CO2 (I) + acetone (5 mol %)): 1.5-2.0 wt-%
Solubility limit ([1]; Solvent CO2 (I) + cyclohexane (5 mol %)): 1.0-1.5 wt-%
Solubility limit ([1]; Solvent CO2 (I) + methanol (5 mol %)): >2.0 wt-%
Solubility limit ([1]; Solvent CO2 (I)): 0.20-0.25 wt-%
Maximum adsorbed amount of Ibuprofen in the mesoporous particles ([2]; 0.34 wt-% Ibuprofen in CO2 (I) + acetone (5 mol-%)): approximately 50 mg Ibuprofen/g SiO2
Maximum adsorbed amount of Ibuprofen in the mesoporous particles ([2]; 0.34 wt-% Ibuprofen in CO2 (I) + cyclohexane (5 mol-%)): approximately 200 mg Ibuprofen/g SiO2
Maximum adsorbed amount of Ibuprofen in the mesoporous particles ([2]; 0.34 wt-% Ibuprofen in CO2 (I) + methanol (5 mol-%)): approximately 50 mg Ibuprofen/g SiO2
Maximum loaded amount of Ibuprofen in mesoporous silica ([2]; Ibuprofen concentration below the solubility limit (0.04 wt-%)): much lower loading
Maximum loaded amount of Ibuprofen in mesoporous silica ([2]; solution saturated with Ibuprofen (0.34 or 0.90 wt-% nominal), 7 to 12 hours): ~300 mg Ibuprofen/g SiO2
Ibuprofen released into water from mesoporous silica [3]: Fifty
